According to ChEMBL document CHEMBL3885881, “DrugMatrix”:

Species on record: Rattus norvegicus
Test: DrugMatrix - Regimen: Daily Repeat
Format: toxicity, organism-based, Sprague-Dawley
Design: regimen Daily Repeat, gender Male, age 6-8 weeks
Conditions: in vivo, iv, 34 mg/kg, dose level High, vehicle 100 % SALINE; for ABSOLUTE BASOPHIL / ABSOLUTE EOSINOPHIL / ABSOLUTE LYMPHOCYTE / ABSOLUTE MONOCYTE / ABSOLUTE SEGMENTED NEUTROPHIL / BASOPHIL / EOSINOPHIL / ERYTHROCYTE COUNT / HEMATOCRIT / HEMOGLOBIN / LEUKOCYTE COUNT / LYMPHOCYTE / MEAN CORPUSCULAR HEMOGLOBIN / MEAN CORPUSCULAR HEMOGLOBIN CONCENTRATION / MEAN CORPUSCULAR VOLUME / MONOCYTE / NEUTROPHIL / NUCLEATED RED BLOOD CELLS / PLATELET COUNT: tissue Blood; for ALANINE AMINOTRANSFERASE / ALBUMIN / ALKALINE PHOSPHATASE / ASPARTATE AMINOTRANSFERASE / BLOOD UREA NITROGEN / CARBON DIOXIDE / CHLORIDE / CHOLESTEROL / CREATINE PHOSPHOKINASE / CREATININE / GLUCOSE / LACTATE DEHYDROGENASE / LIPASE / PHOSPHORUS / POTASSIUM / SODIUM / TOTAL BILIRUBIN / TOTAL PROTEIN / URIC ACID: tissue Plasma

For `CN[C@@H]1[C@@H](O)[C@@H](O[C@@H]2[C@@H](O)[C@H](O[C@H]3OC(CN)=CC[C@H]3N)[C@@H](N)C[C@H]2N)OC[C@]1(C)O` [SISOMICIN], the “ABSOLUTE BASOPHIL” value (72 h, time 3 day) was 0 CELLS/uL, the “ABSOLUTE EOSINOPHIL” value (72 h, time 3 day) was 0 CELLS/uL and the “ABSOLUTE LYMPHOCYTE” value (72 h, time 3 day) was 14608 CELLS/uL. The “ABSOLUTE MONOCYTE” value (72 h, time 3 day) was 68 CELLS/uL, the “ABSOLUTE SEGMENTED NEUTROPHIL” value (72 h, time 3 day) was 824 CELLS/uL and the BASOPHIL (72 h, time 3 day) was 0%. For the same molecule, the EOSINOPHIL (72 h, time 3 day) was 0%, the “ERYTHROCYTE COUNT” value (72 h, time 3 day) was 5.47 x10E6/uL and the HEMATOCRIT (72 h, time 3 day) was 35.6%. The HEMOGLOBIN (72 h, time 3 day) was 14.07 G/DL, the “LEUKOCYTE COUNT” value (72 h, time 3 day) was 15.5 x10E3/uL and the LYMPHOCYTE (72 h, time 3 day) was 94.67%. For the same molecule, the “MEAN CORPUSCULAR HEMOGLOBIN” value (72 h, time 3 day) was 25.73 pg, the “MEAN CORPUSCULAR HEMOGLOBIN CONCENTRATION” value (72 h, time 3 day) was 39.53 G/DL and the “MEAN CORPUSCULAR VOLUME” value (72 h, time 3 day) was 65.13 fL. For the same molecule, the MONOCYTE (72 h, time 3 day) was 0.33%, the NEUTROPHIL (72 h, time 3 day) was 5% and the “NUCLEATED RED BLOOD CELLS” value (72 h, time 3 day) was 0 /100WBC. The “PLATELET COUNT” value (72 h, time 3 day) was 1451.67 x10E3/uL, the “ALANINE AMINOTRANSFERASE” value (72 h, time 3 day) was 52.33 u/L and the ALBUMIN (72 h, time 3 day) was 4.2 G/DL. The “ALKALINE PHOSPHATASE” value (72 h, time 3 day) was 295 u/L, the “ASPARTATE AMINOTRANSFERASE” value (72 h, time 3 day) was 81.67 u/L and the “BLOOD UREA NITROGEN” value (72 h, time 3 day) was 17.67 mg/dL. The “CARBON DIOXIDE” value (72 h, time 3 day) was 24 mmol/L, the CHLORIDE (72 h, time 3 day) was 102.33 MEQ/L and the CHOLESTEROL (72 h, time 3 day) was 66.33 mg/dL. The “CREATINE PHOSPHOKINASE” value (72 h, time 3 day) was 204.33 u/L, the CREATININE (72 h, time 3 day) was 0.22 mg/dL and the GLUCOSE (72 h, time 3 day) was 150.67 mg/dL. The “LACTATE DEHYDROGENASE” value (72 h, time 3 day) was 135.33 u/L, the LIPASE (72 h, time 3 day) was 10.33 u/L and the PHOSPHORUS (72 h, time 3 day) was 11.77 mg/dL. For the same molecule, the POTASSIUM (72 h, time 3 day) was 6.49 MEQ/L, the SODIUM (72 h, time 3 day) was 144.2 MEQ/L and the “TOTAL BILIRUBIN” value (72 h, time 3 day) was 0.17 mg/dL. The “TOTAL PROTEIN” value (72 h, time 3 day) was 6 G/DL, the “URIC ACID” value (72 h, time 3 day) was 1.27 mg/dL and the “ABSOLUTE BASOPHIL” value (120 h, time 5 day) was 0 CELLS/uL. The “ABSOLUTE EOSINOPHIL” value (120 h, time 5 day) was 136 CELLS/uL, the “ABSOLUTE LYMPHOCYTE” value (120 h, time 5 day) was 16493.67 CELLS/uL and the “ABSOLUTE MONOCYTE” value (120 h, time 5 day) was 81 CELLS/uL. The “ABSOLUTE SEGMENTED NEUTROPHIL” value (120 h, time 5 day) was 1222.67 CELLS/uL, the BASOPHIL (120 h, time 5 day) was 0% and the EOSINOPHIL (120 h, time 5 day) was 1%. The “ERYTHROCYTE COUNT” value (120 h, time 5 day) was 5.67 x10E6/uL, the HEMATOCRIT (120 h, time 5 day) was 37.07% and the HEMOGLOBIN (120 h, time 5 day) was 14.6 G/DL. For the same molecule, the “LEUKOCYTE COUNT” value (120 h, time 5 day) was 17.93 x10E3/uL, the LYMPHOCYTE (120 h, time 5 day) was 92% and the “MEAN CORPUSCULAR HEMOGLOBIN” value (120 h, time 5 day) was 25.73 pg. The “MEAN CORPUSCULAR HEMOGLOBIN CONCENTRATION” value (120 h, time 5 day) was 39.43 G/DL, the “MEAN CORPUSCULAR VOLUME” value (120 h, time 5 day) was 65.3 fL and the MONOCYTE (120 h, time 5 day) was 0.33%. For the same molecule, the NEUTROPHIL (120 h, time 5 day) was 6.67%, the “NUCLEATED RED BLOOD CELLS” value (120 h, time 5 day) was 0 /100WBC and the “PLATELET COUNT” value (120 h, time 5 day) was 1387.67 x10E3/uL. The “ALANINE AMINOTRANSFERASE” value (120 h, time 5 day) was 44 u/L, the ALBUMIN (120 h, time 5 day) was 4.3 G/DL and the “ALKALINE PHOSPHATASE” value (120 h, time 5 day) was 391.67 u/L. For the same molecule, the “ASPARTATE AMINOTRANSFERASE” value (120 h, time 5 day) was 71.67 u/L, the “BLOOD UREA NITROGEN” value (120 h, time 5 day) was 15.67 mg/dL and the “CARBON DIOXIDE” value (120 h, time 5 day) was 22.33 mmol/L. For the same molecule, the CHLORIDE (120 h, time 5 day) was 103.67 MEQ/L, the CHOLESTEROL (120 h, time 5 day) was 57.33 mg/dL and the “CREATINE PHOSPHOKINASE” value (120 h, time 5 day) was 158 u/L. The CREATININE (120 h, time 5 day) was 0.22 mg/dL, the GLUCOSE (120 h, time 5 day) was 155 mg/dL and the “LACTATE DEHYDROGENASE” value (120 h, time 5 day) was 130.67 u/L. It also gave an LIPASE (120 h, time 5 day) of 10 u/L, a PHOSPHORUS (120 h, time 5 day) of 12.63 mg/dL and a POTASSIUM (120 h, time 5 day) of 6.57 MEQ/L. For the same molecule, the SODIUM (120 h, time 5 day) was 145.93 MEQ/L, the “TOTAL BILIRUBIN” value (120 h, time 5 day) was 0.27 mg/dL and the “TOTAL PROTEIN” value (120 h, time 5 day) was 6.17 G/DL. The “URIC ACID” value (120 h, time 5 day) was 1.63 mg/dL.
